Molecular target: T1, intact recombinant antibody against clothianidin and dinotefuran (Mus musculus, UniProt P01837+P01868)
T1 construct: The heavy and light chain variable region genes were ligated to linearized expression vectors pCDNA3.4-Mouse-IgG1 and pCDNA3.4-Mouse-Kappa; mouse IgG1 heavy chain constant region (fusion partner); mouse kappa light chain constant region (fusion partner); made in house; host or cells: HEK293F cells, double-plasmid transfection, Protein A purification
Assay: heterologous indirect competitive ELISA (thiacloprid-OVA coating antigen)
Format: binding
Method: In the early stage of preparation of parental ascitic monoclonal antibodies, a difference in sensitivity was compared between the homologous indirect competitive ELISA (coating antigen was clothianidin-OVA) and the heterologous indirect ELISA (coating antigens were thiacloprid-OVA and imidaclothiz-OVA).
In the present disclosure, the specificity of the antibody was evaluated by detecting the cross-reactivity with eight common neonicotinoid insecticides.

Row | SMILES | linear range (IC20 to IC80) [ng/mL]
1 | CN/C(=N\[N+](=O)[O-])NCc1cnc(Cl)s1 [clothianidin] | 1.08 to 15.06
2 | CN/C(=N/CC1CCOC1)N[N+](=O)[O-] (centres unmarked) [dinotefuran] | 3.78 to 30.03

From patent US12180304B2 (Zhejiang University, priority 2020, dated 2024)
